Paper PMC11203799, “Determining the Affinity and Kinetics of Small Molecule Inhibitors of Galectin-1 Using Surface Plasmon Resonance” (International Journal of Molecular Sciences, 2024)

Tests used:
mouse galectin-1 = target: T1, mouse galectin-1 (Mus musculus, UniProt P16045); assay: SPR binding assay, mouse galectin-1
T1 construct: mouse galectin-1 (residues M1-E135); His-tag; made in house; host or cells: E. coli BL21
Experimental: (§1) For SPR studies, His-tagged proteins were expressed in E. coli strain BL21 (human galectin-1 (residues M1-D135) and mouse galectin-1 (residues M1-E135)) and purified as previously described. SDS-PAGE and mass spectrometry were used to confirm protein purity with all proteins stored at −80 °C until use. Human and mouse proteins for FP were produced as previously described.
(§2) The SPR method previously described for galectin-3 proteins was used here for galectin-1 [10]. Briefly, CM3 sensor chip surfaces (Cytiva, Marlborough, MA, USA) were pre-primed and equilibrated in immobilization buffer (10 mM HEPES, 150 mM NaCl (pH 7.4)) using an Amine Coupling Kit (Cytiva, Marlborough, MA, USA) prior to the immobilization of protein (injected at 10 µg/mL in PBS at pH 6.0). […] Chips surfaces were blocked with ethanolamine HCl (pH 8.5) for 420 s upon reaching the immobilization required. Then, EDC/NHS and ethanolamine were used to treat blank surfaces that were protein-free. Running buffer (RB) was used to dilute compounds (10 mM HEPES, 150 mM NaCl, 1 mM DTT, 0.05% Tween 20, 5% DMSO (pH 7.4)), pre-filtered, degassed, and then injected for 1 min at a flow rate of 30 μL/min. […] Following each cycle, the chip surface was auto-regenerated and aided by fast compound off-rates, and a further wash set was completed in RB. […]

human galectin-1 [1] = target: T2, human galectin-1 (Homo sapiens, UniProt P09382); assay: Fluorescence polarization (FP) binding assay, galectin-1; details: human vs mouse galectin-1
T2 construct: human galectin-1 (residues M1-D135); His-tag; made in house; host or cells: E. coli BL21
T2 sequence (P09382 whole entry, the tested form may be a part): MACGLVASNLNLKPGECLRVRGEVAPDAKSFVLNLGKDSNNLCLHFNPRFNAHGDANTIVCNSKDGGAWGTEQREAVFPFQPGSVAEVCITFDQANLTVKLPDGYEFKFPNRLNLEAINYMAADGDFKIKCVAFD
Experimental: as §1

human galectin-1 [2] = target: T2, human galectin-1; assay: SPR binding assay, human galectin-1
Experimental: as §1, §2

T1 sequence (P16045 whole entry, the tested form may be a part): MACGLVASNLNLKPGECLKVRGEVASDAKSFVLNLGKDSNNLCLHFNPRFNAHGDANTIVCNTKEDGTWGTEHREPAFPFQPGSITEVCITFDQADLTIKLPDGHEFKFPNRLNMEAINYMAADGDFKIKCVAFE

Row | SMILES | Kd (mouse galectin-1; koff/kon, 1:1 Langmuir model, 25 °C, read-out: kinetic KD in SPR) [nM] | Fold KD Differences Mouse Gal-1 FP vs. SPR (mouse galectin-1; FP vs SPR assay format) [fold] | Fold KD Differences FP Human vs. Mouse Gal-1 (human galectin-1 [1]) [fold] | Fold KD Differences SPR Human vs. Mouse Gal-1 (human galectin-1 [2]; SPR assay, human vs mouse galectin-1) [fold] | Fold KD Differences Human Gal-1 FP vs. SPR (human galectin-1 [2]; human galectin-1, FP vs SPR assay format) [fold]
1 | OC[C@H]1O[C@@H](S[C@@H]2O[C@H](CO)[C@H](O)[C@H](n3cc(-c4cccc(F)c4)nn3)[C@H]2O)[C@H](O)[C@@H](n2cc(-c3cccc(F)c3)nn2)[C@H]1O [Compound 1, GB0139] | 131 |  |  |  | 
2 | OC[C@H]1O[C@H](Sc2cc(Cl)c(F)c(Cl)c2)[C@H](O)[C@@H](n2cc(-c3nccs3)nn2)[C@H]1O [Compound 4, GB1490] |  | 1.6 | 0.6 | 0.6 | 1.8
